According to ChEMBL document CHEMBL4028802, “DILIrank: the largest reference drug list ranked by the risk for developing drug-induced liver injury in humans” (Drug Discov Today, 2016):

What was measured:
[1] = species on record: Homo sapiens; experiment: Liver toxicity in human assessed as induction of drug-induced liver injury by measuring verified drug-induced liver injury concern status
[2] = species on record: Homo sapiens; experiment: Liver toxicity in human assessed as induction of drug-induced liver injury by measuring severity class index
For DILI severity class in this document: key of the grades not given here.

SMILES	DILI_Concern [1]	DILI_severity_class [2]
COc1cc([C@@H]2c3cc4c(cc3[C@@H](O[C@@H]3O[C@@H]5CO[C@@H](C)O[C@H]5[C@H](O)[C@H]3O)[C@H]3COC(=O)[C@H]23)OCO4)cc(OC)c1O [ETOPOSIDE]	Less-Dili-Concern	3
Cc1cc(C#N)cc(C)c1Oc1nc(Nc2ccc(C#N)cc2)nc(N)c1Br [ETRAVIRINE]	Most-Dili-Concern	8
CO[C@H]1C[C@@H]2CC[C@@H](C)[C@@](O)(O2)C(=O)C(=O)N2CCCC[C@H]2C(=O)O[C@H]([C@H](C)C[C@@H]2CC[C@@H](OCCO)[C@H](OC)C2)CC(=O)[C@H](C)/C=C(\C)[C@@H](O)[C@@H](OC)C(=O)[C@H](C)C[C@H](C)/C=C/C=C/C=C/1C [EVEROLIMUS]	Ambiguous-Dili-Concern	4
C/C(=N\O)C(C)NCC(C)(C)CNC(C)/C(C)=N/O (stereo not given) [EXAMETAZIME]	No-Dili-Concern	0
C=C1C[C@@H]2[C@H](CC[C@]3(C)C(=O)CC[C@@H]23)[C@@]2(C)C=CC(=O)C=C12 [EXEMESTANE]	Most-Dili-Concern	4
O=C(c1cc(O)c(O)c(O)c1)c1ccc(O)c(O)c1O [EXIFONE]	Most-Dili-Concern	8
O=C1[C@H](CC[C@H](O)c2ccc(F)cc2)[C@@H](c2ccc(O)cc2)N1c1ccc(F)cc1 [EZETIMIBE]	Less-Dili-Concern	3
CN1CCC(Nc2ncc3ncnc(Nc4ccc(F)c(Cl)c4)c3n2)CC1 [FALNIDAMOL]	Most-Dili-Concern	8
CC(=O)OCC(CCn1cnc2cnc(N)nc21)COC(C)=O [FAMCICLOVIR]	Ambiguous-Dili-Concern	3
NC(N)=Nc1nc(CSCCC(N)=NS(N)(=O)=O)cs1 [FAMOTIDINE]	Less-Dili-Concern	3
Cc1nc(-c2ccc(OCC(C)C)c(C#N)c2)sc1C(=O)O [FEBUXOSTAT]	Most-Dili-Concern	8
NC(=O)OCC(COC(N)=O)c1ccccc1 [FELBAMATE]	Most-Dili-Concern	7
CCOC(=O)C1=C(C)NC(C)=C(C(=O)OC)C1c1cccc(Cl)c1Cl (stereo not given) [FELODIPINE]	Less-Dili-Concern	3
O=C(O)Cc1csc(-c2ccc(Cl)cc2)n1 [FENCLOZIC ACID]	Most-Dili-Concern	8
CC(C)OC(=O)C(C)(C)Oc1ccc(C(=O)c2ccc(Cl)cc2)cc1 [FENOFIBRATE]	Less-Dili-Concern	3
CC(C)(Oc1ccc(C(=O)c2ccc(Cl)cc2)cc1)C(=O)O [FENOFIBRIC ACID]	Ambiguous-Dili-Concern	2
Oc1ccc(C2CNCCc3c2cc(O)c(O)c3Cl)cc1 (stereo not given) [FENOLDOPAM]	No-Dili-Concern	0
CC(C(=O)O)c1cccc(Oc2ccccc2)c1 (stereo not given) [FENOPROFEN]	Most-Dili-Concern	8
CC(C)C(=O)Oc1ccc(CO)cc1[C@H](CCN(C(C)C)C(C)C)c1ccccc1 [FESOTERODINE]	No-Dili-Concern	0
CC(C)(C(=O)O)c1ccc(C(O)CCCN2CCC(C(O)(c3ccccc3)c3ccccc3)CC2)cc1 (stereo not given) [FEXOFENADINE]	No-Dili-Concern	0
O=c1[nH]c(=O)n([C@@H]2O[C@H](CO)[C@@H](O)[C@@H]2F)cc1I [FIALURIDINE]	Most-Dili-Concern	8
COc1cccc2c1[C@@H]1CN(CCCCn3c(=O)[nH]c4c(sc5ncc(-c6ccccc6)nc54)c3=O)C[C@@H]1CO2 [FIDUXOSIN]	Most-Dili-Concern	8
CC(C)(C)NC(=O)[C@H]1CC[C@H]2[C@@H]3CC[C@H]4NC(=O)C=C[C@]4(C)[C@H]3CC[C@]12C [FINASTERIDE]	Less-Dili-Concern	0
O=C(COc1ccc(Cl)cc1)N1CCN(Cc2ccc3c(c2)OCO3)CC1 [FIPEXIDE]	Most-Dili-Concern	8
Cc1c(-c2ccccc2)oc2c(C(=O)OCCN3CCCCC3)cccc2c1=O [FLAVOXATE]	No-Dili-Concern	0
O=C(NCC1CCCCN1)c1cc(OCC(F)(F)F)ccc1OCC(F)(F)F (stereo not given) [FLECAINIDE]	Less-Dili-Concern	7
OC(Cn1cncn1)(Cn1cncn1)c1ccc(F)cc1F [FLUCONAZOLE]	Most-Dili-Concern	8
Nc1nc(=O)[nH]cc1F [FLUCYTOSINE]	Ambiguous-Dili-Concern	3

SMILES	DILI_Concern [1]	DILI_severity_class [2]
Nc1nc(F)nc2c1ncn2[C@@H]1O[C@H](COP(=O)(O)O)[C@@H](O)[C@@H]1O [FLUDARABINE PHOSPHATE]	No-Dili-Concern	0
C[C@]12CCC(=O)C=C1CC[C@H]1[C@@H]3CC[C@](O)(C(=O)CO)[C@@]3(C)C[C@H](O)[C@@]12F [FLUDROCORTISONE]	No-Dili-Concern	0
CCOC(=O)c1ncn2c1CN(C)C(=O)c1cc(F)ccc1-2 [FLUMAZENIL]	No-Dili-Concern	0
O=c1[nH]cc(F)c(=O)[nH]1 [FLUOROURACIL]	Less-Dili-Concern	0
CNCCC(Oc1ccc(C(F)(F)F)cc1)c1ccccc1 (stereo not given) [FLUOXETINE]	Less-Dili-Concern	3
C[C@]1(O)CC[C@H]2[C@@H]3CCC4=CC(=O)CC[C@]4(C)[C@@]3(F)[C@@H](O)C[C@@]21C [FLUOXYMESTERONE]	Ambiguous-Dili-Concern	8
OCCN1CCN(CCCN2c3ccccc3Sc3ccc(C(F)(F)F)cc32)CC1 [FLUPHENAZINE]	Ambiguous-Dili-Concern	3
CCN(CC)CCN1C(=O)CN=C(c2ccccc2F)c2cc(Cl)ccc21 [FLURAZEPAM]	Less-Dili-Concern	4
CC(C(=O)O)c1ccc(-c2ccccc2)c(F)c1 (stereo not given) [FLURBIPROFEN]	Ambiguous-Dili-Concern	3
CC(C)C(=O)Nc1ccc([N+](=O)[O-])c(C(F)(F)F)c1 [FLUTAMIDE]	Most-Dili-Concern	8
CC(C)n1c(/C=C/C(O)CC(O)CC(=O)O)c(-c2ccc(F)cc2)c2ccccc21 (stereo not given) [FLUVASTATIN]	Less-Dili-Concern	3
COCCCC/C(=N\OCCN)c1ccc(C(F)(F)F)cc1 [FLUVOXAMINE]	Ambiguous-Dili-Concern	3
Nc1nc2ncc(CNc3ccc(C(=O)N[C@@H](CCC(=O)O)C(=O)O)cc3)nc2c(=O)[nH]1 [FOLIC ACID]	No-Dili-Concern	0
Cc1cn[nH]c1 [FOMEPIZOLE]	Ambiguous-Dili-Concern	3
CO[C@H]1O[C@H](COS(=O)(=O)[O-])[C@@H](O[C@@H]2O[C@@H](C(=O)[O-])[C@@H](O[C@H]3O[C@H](COS(=O)(=O)[O-])[C@@H](O[C@@H]4O[C@H](C(=O)[O-])[C@@H](O[C@H]5O[C@H](COS(=O)(=O)[O-])[C@@H](O)[C@H](O)[C@H]5NS(=O)(=O)[O-])[C@H](O)[C@H]4O)[C@H](OS(=O)(=O)[O-])[C@H]3NS(=O)(=O)[O-])[C@H](O)[C@H]2OS(=O)(=O)[O-])[C@H](O)[C@H]1NS(=O)(=O)[O-].[Na+].[Na+].[Na+].[Na+].[Na+].[Na+].[Na+].[Na+].[Na+].[Na+] [FONDAPARINUX SODIUM]	Less-Dili-Concern	3
CC(C)CN(C[C@@H](OP(=O)(O)O)[C@H](Cc1ccccc1)NC(=O)O[C@H]1CCOC1)S(=O)(=O)c1ccc(N)cc1 [FOSAMPRENAVIR]	Ambiguous-Dili-Concern	3
C[C@@H](O[C@H]1OCCN(Cc2nc(O)n(P(=O)(O)O)n2)[C@H]1c1ccc(F)cc1)c1cc(C(F)(F)F)cc(C(F)(F)F)c1 [FOSAPREPITANT]	Ambiguous-Dili-Concern	3
O=C(O)P(=O)(O)O [FOSCARNET]	Ambiguous-Dili-Concern	3
C[C@@H]1O[C@@H]1P(=O)(O)O [FOSFOMYCIN]	Less-Dili-Concern	6
CCC(=O)O[C@@H](O[P@](=O)(CCCCc1ccccc1)CC(=O)N1C[C@H](C2CCCCC2)C[C@H]1C(=O)O)C(C)C [FOSINOPRIL]	Less-Dili-Concern	3
O=C1NC(c2ccccc2)(c2ccccc2)C(=O)N1COP(=O)(O)O [FOSPHENYTOIN]	Most-Dili-Concern	8
CC(C)c1cccc(C(C)C)c1OCOP(=O)(O)O [FOSPROPOFOL]	Less-Dili-Concern	0
CN[C@@H]1CCc2[nH]c3ccc(C(N)=O)cc3c2C1 [FROVATRIPTAN]	No-Dili-Concern	0
C[C@]12CC[C@@H]3c4ccc(O)cc4C[C@@H](CCCCCCCCC[S+]([O-])CCCC(F)(F)C(F)(F)F)[C@H]3[C@@H]1CC[C@@H]2O (stereo not given in full) [FULVESTRANT]	Ambiguous-Dili-Concern	7
NCC1(CC(=O)O)CCCCC1 [GABAPENTIN]	Less-Dili-Concern	3
COc1ccc2c3c1O[C@H]1C[C@@H](O)C=C[C@@]31CCN(C)C2 [GALANTAMINE]	Ambiguous-Dili-Concern	3
Nc1nc(O)c2ncn(COC(CO)CO)c2n1 [GANCICLOVIR]	Ambiguous-Dili-Concern	7
